Structures can show the parent of a compound that is named as a salt.
What follows are molecules tested against T1, human SSAO (Homo sapiens, UniProt Q16853) (assay: SSAO enzyme inhibition assay (benzylamine substrate; HRP-coupled hydrogen peroxide detection or 14C-benzaldehyde detection)). Conditions: purified recombinantly expressed human SSAO, benzylamine as substrate, r.t.; read-out: SSAO inhibitory activity IC50.
T1 construct: made in house
T1 sequence (Q16853 29-763 limits assumed): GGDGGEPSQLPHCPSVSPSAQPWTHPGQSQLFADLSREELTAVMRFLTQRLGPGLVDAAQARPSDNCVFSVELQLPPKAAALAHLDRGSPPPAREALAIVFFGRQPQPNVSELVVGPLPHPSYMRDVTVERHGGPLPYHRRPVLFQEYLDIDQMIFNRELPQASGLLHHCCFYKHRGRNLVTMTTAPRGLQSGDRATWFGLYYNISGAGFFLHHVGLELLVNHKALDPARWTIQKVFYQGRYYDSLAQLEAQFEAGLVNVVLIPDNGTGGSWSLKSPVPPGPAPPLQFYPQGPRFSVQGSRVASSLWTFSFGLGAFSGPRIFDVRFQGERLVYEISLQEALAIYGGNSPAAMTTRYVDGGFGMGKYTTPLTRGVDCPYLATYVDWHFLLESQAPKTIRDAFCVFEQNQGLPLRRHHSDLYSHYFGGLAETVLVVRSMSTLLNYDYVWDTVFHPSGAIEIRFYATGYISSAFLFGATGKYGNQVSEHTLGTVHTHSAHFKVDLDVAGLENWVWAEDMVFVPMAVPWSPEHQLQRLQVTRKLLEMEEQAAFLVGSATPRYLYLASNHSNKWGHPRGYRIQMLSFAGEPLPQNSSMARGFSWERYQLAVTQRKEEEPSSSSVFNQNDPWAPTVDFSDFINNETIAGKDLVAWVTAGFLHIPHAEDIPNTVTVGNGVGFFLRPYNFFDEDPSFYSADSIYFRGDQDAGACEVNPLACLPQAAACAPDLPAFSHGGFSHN
Type: biochemical
Method: All primary assays were performed at r.t. with purified recombinantly expressed human SSAO. Enzyme was prepared essentially as described in Öhman et al. (Protein Expression and Purification 46 (2006) 321-331). In addition, secondary- and selectivity assays were performed using SSAO prepared from various tissues or purified rat recombinant SSAO. The enzyme activity was assayed with benzylamine as substrate by measuring either benzaldehyde production, using ^14C-labeled substrate, or by utilizing the production of hydrogen peroxide in a horseradish peroxidise (HRP) coupled reaction. Briefly, test compounds were dissolved in dimethyl sulfoxide (DMSO) to a concentration of 10 mM. Dose-response measurements were assayed by either creating 1:10 serial dilutions in DMSO to produce a 7 point curve or by making 1:3 serial dilutions in DMSO to produce 11 point curves. The top concentrations were adjusted depending on the potency of the compounds and subsequent dilution in reaction buffer yielded a final DMSO concentration ≦2%.
In a horseradish peroxidise (HRP) coupled reaction, hydrogen peroxide oxidation of 10-acetyl-3,7-dihydroxyphenoxazine produced resorufin, which is a highly fluorescent compound (Zhout and Panchuk-Voloshina. Analytical Biochemistry 253 (1997) 169-174; Amplex® Red Hydrogen Peroxide/peroxidise Assay kit, Invitrogen A22188). Enzyme and compounds in 50 mM sodium phosphate, pH 7.4 were set to pre-incubate in flat-bottomed microtiter plates for approximately 15 minutes before initiating the reaction by addition of a mixture of HRP, benzylamine and Amplex reagent. Benzylamine concentration was fixed at a concentration corresponding to the Michaelis constant, determined using standard procedures. Fluorescence intensity was then measured at several time points during 1-2 hours, exciting at 544 nm n and reading the emission at 590 nm. For the human SSAO assay final concentrations of the reagents in the assay wells were: SSAO enzyme 1 μg/ml, benzylamine 100 μM, Amplex reagent 20 μM, HRP 0.1 U/mL and varying concentrations of test compound. The inhibition was measured as % decrease of the signal compared to a control without inhibitor (only diluted DMSO). The background signal from a sample containing no SSAO enzyme was subtracted from all data points. Data was fitted to a four parameter logistic model and IC50 values were calculated using the GraphPad Prism 4 or XLfit 4 programs.
SSAO activity was assayed using 14C-labeled benzylamine and analysed by measuring radioactive benzaldehyde. In a white 96-well optiplate (Packard), 20 μL of diluted test compound was pre-incubated at r.t. with 20 μL SSAO enzyme for approximately 15 minutes with continuous agitation. All dilutions were made with PBS. The reaction was initiated by adding 20 μL of the benzylamine substrate solution containing [7-14C] Benzylamine hydrochloride (CFA589, GE Healthcare). The plate was incubated for 1 hour as above after which the reaction was stopped by acidification (10 μL 1 M HCl). Then 90 μL Micro Scint-E solution (Perkin-Elmer) was added to each well and the plate was continuously mixed for 15 minutes. Phase separation occurred instantly and activity was read in a Topcount scintillation counter (Perkin-Elmer). In the final reaction well, human recombinant SSAO concentration was 10 μg/ml. In order to optimize sensitivity, the substrate concentration was decreased as compared to the HRP coupled assay in order to get a higher fraction of radioactive product. In the human SSAO assay, benzylamine concentration was 40 μM (0.2 μCi/mL). Data was analysed as above.
Molecule Clc1ccc(-n2cc(CN3CCOCC3)c3ccncc32)cc1 [Compound 29, 4-{[1-(4-Chlorophenyl)-1H-pyrrolo[2,3-c]pyridin-3-yl]methyl}morpholine] has an IC50 of 0.5 to 2.5 µM.
Molecule FC1(F)CCN(c2nn(-c3ccc(Cl)cc3)c3cnccc23)C1 [Compound 48, 1-[1-(4-Chlorophenyl)-1H-pyrazolo[3,4-c]pyridin-3-yl]-3,3-difluoropyrrolidine] has an IC50 of 0.1 to 0.5 µM.
Work on Cc1ccc(-n2nc(N3CCOCC3C(N)=O)c3ccncc32)cc1 (stereo not shown) [Compound 77, 4-[1-(4-Methylphenyl)-1H-pyrazolo[3,4-c]pyridin-3-yl]morpholine-3-carboxamide] yielded an IC50 of 0.5 to 2.5 µM.
CCCCN1CCC(c2nn(-c3ccc(Cl)cc3)c3cnccc23)CC1 [Compound 90, 1-Butyl-4-[1-(4-chlorophenyl)-1H-pyrazolo[3,4-c]pyridin-3-yl]piperidine] showed an IC50 of 0.5 to 2.5 µM.
Work on N#Cc1ccc(-n2nc(C3CCOCC3)c3ccncc32)cc1 [Compound 41, 4-[3-(Oxan-4-yl)-1H-pyrazolo[3,4-c]pyridin-1-yl]benzonitrile] yielded an IC50 of 0.5 to 2.5 µM.
In the case of NCCC(=O)N1CCN(c2nn(-c3ccc(Cl)cc3)c3cnccc23)CC1 [Compound 76], the IC50 is reported as 0.1 to 0.5 µM.
Work on OC1CCN(c2nn(-c3ccc(Cl)cc3)c3cnccc23)C1 (stereo not shown) [Compound 49, 1-[1-(4-Chlorophenyl)-1H-pyrazolo[3,4-c]pyridin-3-yl]pyrrolidin-3-ol] yielded an IC50 of under 0.1 µM.
Clc1ccc(-c2cn(C3CCOCC3)c3ccncc23)cc1 [Compound 4, 3-(4-Chlorophenyl)-1-(oxan-4-yl)-1H-pyrrolo[3,2-c]pyridine] gave an IC50 of 0.1 to 0.5 µM.
FC(F)c1ccc(-n2nc(C3CCOCC3)c3ccncc32)cc1 [Compound 42, 1-[4-(Difluoromethyl)phenyl]-3-(oxan-4-yl)-1H-pyrazolo[3,4-c]pyridine] showed an IC50 of 0.1 to 0.5 µM.
For Oc1cc2c(C3CCOCC3)nn(-c3ccc(Cl)cc3)c2cn1 [Compound 97, 1-(4-Chlorophenyl)-3-(oxan-4-yl)-1H,5H,6H-pyrazolo[3,4-c]pyridin-5-one], the IC50 was 0.1 to 0.5 µM.
Fc1ccc(-n2nc(C3CCOCC3)c3ccncc32)cc1 [Compound 83, 1-(4-Fluorophenyl)-3-(oxan-4-yl)-1H-pyrazolo[3,4-c]pyridine] was tested, and the IC50 was 0.1 to 0.5 µM.
Work on OCC1CCN(Cc2cn(-c3ccc(Cl)cc3)c3cnccc23)CC1 [Compound 28, (1-{[1-(4-Chlorophenyl)-1H-pyrrolo[2,3-c]pyridin-3-yl]methyl}piperidin-4-yl)methanol] yielded an IC50 of 0.1 to 0.5 µM.
Clc1ccc(-n2cc(CN3CCNCC3)c3ccncc32)cc1 [Compound 26, 1-{[1-(4-Chlorophenyl)-1H-pyrrolo[2,3-c]pyridin-3-yl]methyl}piperazine] gave an IC50 of 0.5 to 2.5 µM.
With NCCC(=O)N1CCC(c2cn(-c3ccc(Cl)cc3)c3cnccc23)CC1 [Compound 17, 3-Amino-1-{4-[1-(4-chlorophenyl)-1H-pyrrolo[2,3-c]pyridin-3-yl]piperidin-1-yl}propan-1-one hydrochloride] the IC50 was under 0.1 µM.
With Cc1ccc(-n2cc(C3CCOCC3)c3ccncc32)cc1 [Compound 102, 1-(4-Methylphenyl)-3-(oxan-4-yl)-1H-pyrrolo[2,3-c]pyridine] the IC50 was under 0.1 µM.
Work on Clc1ccc(-n2nc(C3CCNCC3)c3ccncc32)cc1 [Compound 84, 4-[1-(4-Chlorophenyl)-1H-pyrazolo[3,4-c]pyridin-3-yl]piperidine] yielded an IC50 of 0.1 to 0.5 µM.
With O=C(CO)N1CCC(n2cc(-c3ccc(Cl)c(Cl)c3)c3cnccc32)CC1 [Compound 7, 1-{4-[3-(3,4-Dichlorophenyl)-1H-pyrrolo[3,2-c]pyridin-1-yl]piperidin-1-yl}-2-hydroxyethan-1-one] the IC50 was 0.5 to 2.5 µM.
Work on Clc1ccc(-n2cc(C3CCOCC3)c3ccncc32)cc1 [Compound 101, 1-(4-Chlorophenyl)-3-(oxan-4-yl)-1H-pyrrolo[2,3-c]pyridine] yielded an IC50 of under 0.1 µM.
Work on Cc1ccc(-n2nc(N3CCOCC3C(=O)N3CCOCC3)c3ccncc32)cc1 (stereo not shown) [Compound 78, 4-[1-(4-Methylphenyl)-1H-pyrazolo[3,4-c]pyridin-3-yl]-3-[(morpholin-4-yl)carbonyl]morpholine] yielded an IC50 of 0.5 to 2.5 µM.

Source: patent US9227967B2, “Inhibitor compounds of semicarbazide-sensitive amine oxidases” (Proximagen Limited, priority 2010, dated 2016)
